We go through 2 compounds from patent US20170080087A1, “Combination Therapies for Treating Her2-Positive Cancers that are Resistant to Her2-Targeted Therapies” (MERRIMACK PHARMACEUTICALS, INC., priority 2014, published 2017).

In one data set the test system is human cardiomyocytes. As to the kind of experiment: Binding and uptake into human cardiomyocytes. The data set is classed as cell-based. Particulars: compared with MM-302 and untargeted pegylated liposomal doxorubicin. The text has this:
Additionally, the number of HER2 receptors needed per cell to optimize the binding of MM-302 is approximately 200,000 HER2 receptors per cell. […] The primary mechanism of action of MM-302 is the use of the HER2 protein to selectively deliver doxorubicin into tumor cells that express greater than approximately 200,000 HER2 receptors per cell.

In data set [1] the test system is BT-474-M3 breast cancer cells. Nature of the data set: BT-474-M3 breast cancer xenograft after failure to respond to T-DM1. In kind it is in vivo, mice. The method, then: The response to the MM-302 and trastuzumab combination after failure to respond to T-DM1 was evaluated in the BT-474-M3 breast cancer xenograft model.
To obtain the BT-474-M3 HER2-overexpressing human breast cancer cell line, BT-474 cells (ATCC® HTB-20™) were passaged twice through mice with the fastest growing two tumors out of ten selected for ex-vivo propagation during each round of selection. Tumors were excised and cultured ex-vivo to obtain the M3 sub-line that was verified by SNP analysis. (see Noble, Cancer Chemother. Pharmacol. 2009 64:741-51).
Mice were inoculated with BT-474-M3 breast cancer cells (15×10^6; into the mammary fat pad). When tumor volumes reached about 360 mm^3, mice were treated with T-DM1 at either 1, 2, or 4 mg/kg (q1w) (white circles). […] At day 55, the mice were switched from T-DM1 treatment to the combination of MM-302 (3 mg/kg, q1w for a total of 3 doses; day 55, 62 and 69) and trastuzumab (at a loading dose of 8 mg/kg followed by 6 mg/kg q1w) (black squares). Changes in tumor volume as well as in mouse weight were monitored twice a week.

Take `COc1cccc2c1C(=O)c1c(O)c3c(c(O)c1C2=O)C[C@@](O)(C(=O)CO)C[C@@H]3O[C@H]1C[C@H](N)[C@H](O)[C@H](C)O1` [free doxorubicin, (8S,10S)-10-(4-amino-5 hydroxy-6-methyl-tetrahydro-2H-pyran-2-yloxy)-6,8,11-trihydroxy-8-(2-hydroxyacetyl)-1-methoxy-7,8,9,10-tetrahydrotetracene-5,12-dione]: in the data set on human cardiomyocytes, the “level of uptake into human cardiomyocytes” value is given as “relatively much higher”.
Take T-DM1: the “tumor response to single agent” value in data set [1] (T-DM1 1, 2 or 4 mg/kg q1w) is recorded as “failed to respond”. In data set [1] (days 0-55, during T-DM1 treatment), the “slope of tumor volume curve (linear regression)” value is recorded as “positive slope”.
